In patent US9549935B2, “Methods and compositions for treating migraines using noribogaine” (DemeRx, Inc., priority 2014, dated 2017):

Columns and labels:
[1] = QT interval evaluation in opioid-dependent patients; type: in vivo, human; conditions: 60, 120, 180 mg, first 24 hours post administration
Description: Patients' QT intervals were evaluated at regular time points throughout the study.

[2] = Plasma noribogaine pharmacokinetics after ascending single oral doses in healthy volunteers; type: in vivo, human; conditions: for mean AUC/24 hr / mean AUC/24: fasting, serum; for CL/F: fasted healthy volunteers, mean (SD), n = 6
From the text: Thirty-six healthy, drug-free male volunteers, aged between 18-55 years, were enrolled in and completed the study. This was an ascending single-dose, placebo-controlled, randomized double blind, parallel group study. Mean (SD) age was 22.0 (3.3) years, mean (SD) height was 1.82 (0.08) m, and mean (SD) weight was 78.0 (9.2) kg. Twenty-six subjects were Caucasian, 3 were Asian, 1 Maori, 1 Pacific Islander, and 5 Other. The protocol for this study was approved by the Lower South Regional Ethics Committee (LRS/12/06/015), and the study was registered with the Australian New Zealand Clinical Trial Registry (ACTRN12612000821897). All subjects provided signed informed consent prior to enrolment, and were assessed as suitable to participate based on review of medical history, physical examination, safety laboratory tests, vital signs and ECG.
Within each dose level, 6 participants were randomized to receive noribogaine and 3 to receive placebo, based on a computer-generated random code. Dosing began with the lowest noribogaine dose, and subsequent cohorts received the next highest dose after the safety, tolerability, and blinded pharmacokinetics of the completed cohort were reviewed and dose-escalation approved by an independent Data Safety Monitoring Board. Blinded study drug was administered as a capsule with 240 ml of water after an overnight fast of at least 10 hours. […] Participants were confined to the study site from 12 hours prior to drug administration, until 72 hours post-dose, and there were subsequent outpatient assessments until 216 hours post-dose.
Blood was obtained for pharmacokinetic assessments pre-dose and then at 0.25, 0.5, 0.75, 1.0, 1.25, 1.5, 2, 2.5, 3, 3.5, 4, 4.5, 5, 5.5, 6, 7, 8, 10, 12, 14, 18, 24, 30, 36, 48, 60, 72, 96, 120, 168 and 216 hours post-dose. Samples were centrifuged and plasma stored at −70° C. until analyzed. Block 24 hour urine collections were obtained following study drug administration for the 30 and 60 mg cohorts. Aliquots were frozen at −20° C. until analyzed.
Plasma noribogaine concentrations were determined in the 3 mg and 10 mg dose groups using a validated, sensitive LCMSMS method. Sample preparation involved double extraction of basified plasma samples with tert-butyl methyl ether, drying the samples under a stream of nitrogen and reconstitution of sample with acetonitrile:B.P. water (5:95, v/v) containing 0.1% (v/v) formic acid. The compounds were separated by a 150×2.0 mm Luna 5 μm C18 column and detected with a triple-quadrupole API 4000 or 5000 mass spectrometer using electrospray ionization in positive mode and multiple reaction monitoring. Noribogaine-d4 was used as the internal standard. The precursor-product ion transition values for noribogaine were m/z 297.6→122.3, and for the internal standard noribogaine-d4 m/z 301.1→122.2. Analyst® software was used for data acquisition and processing. The ratio of the peak area of noribogaine to the internal standard noribogaine-d4 was used for calibration and measurement of the unknown concentration of noribogaine. The lower limit of quantification (LLOQ) was 0.025 ng/ml noribogaine. The calibration curve was between 0.025 and 25.600 ng/ml noribogaine. Mobile phase A was acetonitrile:B.P. water (5:95, v/v) containing 0.1% (v/v) formic acid, and mobile phase B was acetonitrile:B.P. water (95:5, v/v) containing 0.1% (v/v) formic acid. Total run time was 6 minutes. Binary flow: Initial concentration was 8% mobile phase B; hold at 8% mobile phase B for 0.5 minutes and linear rise to 90% mobile phase B over 1.5 minutes; hold at 90% mobile phase B for 1 minute and then drop back to 8% mobile phase B over 0.01 minute. Equilibrate system for 3 minutes. Total run time was 6 minutes. Within- and between-day assay precision was <9%, and within- and between-day assay accuracy was <9%.
Plasma noribogaine concentrations were determined in the 30 mg and 60 mg dose groups using a validated, sensitive LCMSMS method. […]

[3] = Serum noribogaine pharmacokinetics in opioid-dependent patients (Phase IB); conditions: 60, 120, 180 mg cohorts
[4] = Treatment emergent adverse events in opioid-dependent participants (Phase IB)

CC[C@H]1CC2C[C@H]3c4[nH]c5ccc(O)cc5c4CCN(C2)C13 [Noribogaine, noribogaine]
QT interval prolongation (ΔQTcl) [1]: dose-dependent increase in QT interval prolongation | Dose-proportionality of Cmax and AUC ([2]; 3-60 mg single oral doses, healthy volunteers): increased linearly with dose | time of peak concentrations after oral dosing ([2]; across 3-60 mg dose groups, healthy volunteers): 2 to 3 h | Mean half-life estimates ([2]; across dose groups (3-60 mg), healthy volunteers): 28 to 50 h | mean AUC/24 hr ([2]; single dose of 3 mg free base): 3.1 ng/mL | mean AUC/24 hr ([2]; single dose of 10 mg free base): 10.6 ng/mL | mean AUC/24 ([2]; single dose of 30 mg free base): 29.2 ng/mL | mean AUC/24 ([2]; single dose of 60 mg free base): 61 ng/mL | CL/F ([2]; single oral 3 mg dose): 41.4 (7.0) L/h | CL/F ([2]; single oral 10 mg dose): 42.3 (12.0) L/h | CL/F ([2]; single oral 30 mg dose): 46.9 (16.4) L/h | CL/F ([2]; single oral 60 mg dose): 34.0 (11.4) L/h | dose dependence of maximum serum concentration (Cmax) [3]: increased in a dose-dependent manner | frequency of headaches ([4]; 60 mg treatment group): frequent | frequency of headaches ([4]; 120 mg and 180 mg dose groups): attenuated | hallucinatory effects ([4]; 60-180 mg, opioid-dependent participants): no hallucinatory effects | Treatment Emergent AE: Catheter Site Infection ([4]; single 60 mg dose, N = 6): 0 | Treatment Emergent AE: Catheter Site Pain ([4]; single 60 mg dose, N = 6): 0 | Treatment Emergent AE: Catheter Site Related Reaction ([4]; single 60 mg dose, N = 6): 0 | Treatment Emergent AE: Cellulitis ([4]; single 60 mg dose, N = 6): 0 | Treatment Emergent AE: Diarrhoea ([4]; single 60 mg dose, N = 6): 0 | Treatment Emergent AE: Dry Mouth ([4]; single 60 mg dose, N = 6): 0 | Treatment Emergent AE: Ear and Labyrinth Disorders ([4]; single 60 mg dose, N = 6): 0 | Treatment Emergent AE: Epistaxis ([4]; single 60 mg dose, N = 6): 0 | Treatment Emergent AE: Euphoric Mood ([4]; single 60 mg dose, N = 6): 0 | Treatment Emergent AE: General Disorders and Administration Site Conditions ([4]; single 60 mg dose, N = 6): 0 | Treatment Emergent AE: Hyperaesthesia ([4]; single 60 mg dose, N = 6): 0 | Treatment Emergent AE: Infections and Infestations ([4]; single 60 mg dose, N = 6): 0 | Treatment Emergent AE: Limb Discomfort ([4]; single 60 mg dose, N = 6): 0 | Treatment Emergent AE: Malaise ([4]; single 60 mg dose, N = 6): 0 | Treatment Emergent AE: Nausea ([4]; single 60 mg dose, N = 6): 0 | Treatment Emergent AE: Oropharyngeal Pain ([4]; single 60 mg dose, N = 6): 0 | Treatment Emergent AE: Pseudoparalysis ([4]; single 60 mg dose, N = 6): 0 | Treatment Emergent AE: Respiratory, Thoracic and Mediastinal Disorders ([4]; single 60 mg dose, N = 6): 0 | Treatment Emergent AE: Rhinorrhoea ([4]; single 60 mg dose, N = 6): 0 | Treatment Emergent AE: Skin Discomfort ([4]; single 60 mg dose, N = 6): 0 | Treatment Emergent AE: Skin Irritation ([4]; single 60 mg dose, N = 6): 0 | Treatment Emergent AE: Skin and Subcutaneous Tissue Disorders ([4]; single 60 mg dose, N = 6): 0 | Treatment Emergent AE: Somnoience ([4]; single 60 mg dose, N = 6): 0 | Treatment Emergent AE: Tinnitus ([4]; single 60 mg dose, N = 6): 0 | Treatment Emergent AE: Tremor ([4]; single 60 mg dose, N = 6): 0 | Treatment Emergent AE: Urinary Tract Infection ([4]; single 60 mg dose, N = 6): 0 | Treatment Emergent AE: Vomiting ([4]; single 60 mg dose, N = 6): 0 | Treatment Emergent AE: Back Pain ([4]; single 120 mg dose, N = 6): 0 | Treatment Emergent AE: Catheter Site Infection ([4]; single 120 mg dose, N = 6): 0 | Treatment Emergent AE: Catheter Site Related Reaction ([4]; single 120 mg dose, N = 6): 0 | Treatment Emergent AE: Depressed Mood ([4]; single 120 mg dose, N = 6): 0 | Treatment Emergent AE: Dry Eye ([4]; single 120 mg dose, N = 6): 0 | Treatment Emergent AE: Dyspepsia ([4]; single 120 mg dose, N = 6): 0 | Treatment Emergent AE: Euphoric Mood ([4]; single 120 mg dose, N = 6): 0 | Treatment Emergent AE: Limb Discomfort ([4]; single 120 mg dose, N = 6): 0 | Treatment Emergent AE: Malaise ([4]; single 120 mg dose, N = 6): 0 | Treatment Emergent AE: Musculoskeletal and Connective Tissue Disorders ([4]; single 120 mg dose, N = 6): 0 | Treatment Emergent AE: Psychiatric Disorders ([4]; single 120 mg dose, N = 6): 0 | Treatment Emergent AE: Somnoience ([4]; single 120 mg dose, N = 6): 0 | Treatment Emergent AE: Urinary Tract Infection ([4]; single 120 mg dose, N = 6): 0 | Treatment Emergent AE: Catheter Site Infection ([4]; single 180 mg dose, N = 6): 0 | Treatment Emergent AE: Catheter Site Pain ([4]; single 180 mg dose, N = 6): 0 | Treatment Emergent AE: Depressed Mood ([4]; single 180 mg dose, N = 6): 0 | Treatment Emergent AE: Diarrhoea ([4]; single 180 mg dose, N = 6): 0 | Treatment Emergent AE: Dry Eye ([4]; single 180 mg dose, N = 6): 0 | Treatment Emergent AE: Dyspepsia ([4]; single 180 mg dose, N = 6): 0 | Treatment Emergent AE: Ear and Labyrinth Disorders ([4]; single 180 mg dose, N = 6): 0 | Treatment Emergent AE: Epistaxis ([4]; single 180 mg dose, N = 6): 0 | Treatment Emergent AE: Euphoric Mood ([4]; single 180 mg dose, N = 6): 0 | Treatment Emergent AE: Hyperaesthesia ([4]; single 180 mg dose, N = 6): 0 | Treatment Emergent AE: Malaise ([4]; single 180 mg dose, N = 6): 0 | Treatment Emergent AE: Oropharyngeal Pain ([4]; single 180 mg dose, N = 6): 0 | Treatment Emergent AE: Pseudoparalysis ([4]; single 180 mg dose, N = 6): 0 | Treatment Emergent AE: Psychiatric Disorders ([4]; single 180 mg dose, N = 6): 0 | Treatment Emergent AE: Respiratory, Thoracic and Mediastinal Disorders ([4]; single 180 mg dose, N = 6): 0 | Treatment Emergent AE: Rhinorrhoea ([4]; single 180 mg dose, N = 6): 0 | Treatment Emergent AE: Skin Discomfort ([4]; single 180 mg dose, N = 6): 0 | Treatment Emergent AE: Skin Irritation ([4]; single 180 mg dose, N = 6): 0 | Treatment Emergent AE: Skin and Subcutaneous Tissue Disorders ([4]; single 180 mg dose, N = 6): 0 | Treatment Emergent AE: Somnoience ([4]; single 180 mg dose, N = 6): 0 | Treatment Emergent AE: Tinnitus ([4]; single 180 mg dose, N = 6): 0 | Treatment Emergent AE: Tremor ([4]; single 180 mg dose, N = 6): 0
